How the values were obtained:
in vivo = details: mouse, sc
rats = test: Convulsive and lethal doses in rats, intravenous infusion; assay type: in vivo; details: male rats, i.v. at 1.0 mg/kg/min
Experimental: (§1) Convulsive doses and lethal doses after intravenous administration for selected compounds of the invention and for Bupivacaine are shown in Table 3 below.
(§2) Convulsive and lethal doses of selected compounds
(§3) administered intravenously at 1.0 mg/kg/min to rats (male;

[1] = as above; assay type: in vivo; details: rat, in vivo, iv; male rats, i.v. at 1.0 mg/kg/min; read-out: Convulsive dose
Experimental: as §1, §2, §3

guinea pigs = test: Infiltration anesthetic effects, intracutaneous injection in guinea pigs; assay type: in vivo; details: 0.2 ml of 0.5% by weight solution
Experimental: 1. […] A. Infiltration anesthetic effects: The effects of the new compounds were tested according to Aberg & […], Acta Anaesth.

rabbit cornea = test: Topical anesthetic effects, corneal test in rabbits in vivo; details: 0.25 ml
Experimental: C. Topical anesthetic effects. Corneal tests were carried out in rabbits in vivo according to Henn.

sciatic nerve = test: Nerve blocking effects in rats in vivo; details: 0.25 ml of 0.5% by weight solution
Experimental: B. Nerve blocking effects. The tests were carried out in vivo in rats after injection of 0.25 ml of the test solutions close to the sciatic nerve.

ventricular arrhythmias = test: Antiarrhythmic effects, ouabain-induced ventricular arrhythmias in anesthetized dogs; assay type: in vivo; details: i.v.
Experimental: 2. Antiarrhythmic effects.
Ventricular arrhythmias were induced in anesthetized dogs by intravenous injection of ouabain: initially 40 μg/kg bodyweight and thereafter 20 μg/kg bodyweight every 20 minutes until the ventricular arrhythmia was regarded as manifest. Lidocaine was also tested by the same procedure. The new compounds were compared with lidocaine, a known antiarrhythmic compound.

lingomandibular reflex = test: Interneuronblocking effects, lingomandibular reflex in anesthetized cats; assay type: in vivo, cats (female; 2.5-3.5 kg)
Experimental: 3. Interneuronblocking effects.
Tests were carried out in anesthetized cats (female; 2.5-3.5 kg bodyweight). The effects of the compounds were studied on the lingomandibular reflex, which was provoked by means of electrical stimulation of the tongue. The mandibular reflux was registered from a transducer connected to the mandible. Phenyramidole was tested by the same procedure. As evident from the results shown in Table 8, the compound according to Example 2 of the invention is 10 times as potent as phenyramidole.

cynomolgus monkeys = test: Spinal anesthetic effects in monkeys, intrathecal injection; assay type: in vivo; details: intrathecal 1.0 ml
Experimental: D. Spinal Anesthetic Effects.
Spinal anesthetsias were performed on cynomolgus monkeys that had been sedated with ketamine (6 mg/kg; i.m.). 1.0 ml of the test solutions were injected intrathecally and the durations were tested every ten (10) minutes with forceps. The duration of motoric blockade was calculated as the time until the hind leg paralysis ceased.

SMILES	LD50 (in vivo) [mg/kg]	Lethal dose (rats) [mg/kg]	TD50 [1] [mg/kg]	Infiltration anesthesia duration (guinea pigs) [min]	Topical anesthetic effect, Duration (rabbit cornea; concentration 1.0%) [min]	Topical anesthetic effect, Onset frequency (rabbit cornea; concentration 1.0%)	Nerve blocking effect, Motoric blockade (sciatic nerve) [min]	Nerve blocking effect, Sensoric blockade (sciatic nerve) [min]	Duration of regularization (ventricular arrhythmias; 1 mg/kg) [min]	other results
CCCCN1CCCCC1C(=O)Nc1c(C)cccc1C (centres unmarked) [Bupivacaine, reference compound]	50	13	9							
Cc1cccc(C)c1OCC1CCCCN1 (centres unmarked) [Example 1, 2-[(2,6-xyloxy)methyl]piperidine]	110	50	22	40	24 ± 4	9/10	75	90	5	Duration of regularization (ventricular arrhythmias; 2 mg/kg): 10 min
Cc1cccc(C)c1OCC1CCCCN1C.Cl (centres unmarked) [Example 2, N-methyl-2-[(2,6-xyloxy)methyl]-piperidine hydrochloride]	260	33	10	120	14 ± 4	7/10	110	135	2	inhibition at 0.25 mg/kg (lingomandibular reflex; Felis catus, iv, 0.25 mg/kg bodyweight, read-out: Maximal inhibition): 30%; inhibition at 0.5 mg/kg (lingomandibular reflex; Felis catus, iv, 0.50 mg/kg bodyweight, read-out: Maximal inhibition): 80%; inhibition at 1 mg/kg (lingomandibular reflex; Felis catus, iv, 1.00 mg/kg bodyweight, read-out: Maximal inhibition): 100%; Duration of inhibition (lingomandibular reflex; i.v., 0.25 mg/kg bodyweight): 10 min; Duration of inhibition (lingomandibular reflex; i.v., 0.50 mg/kg bodyweight): 20 min; Duration of inhibition (lingomandibular reflex; i.v., 1.00 mg/kg bodyweight): 45 min; Potency relative to phenyramidole (lingomandibular reflex; i.v., compared with phenyramidole): 10 times; Duration of regularization (ventricular arrhythmias; 2 mg/kg): 4 min
CC1CCCC(C)C1OCC1CCCCN1 (centres unmarked) [Example 3, 2-[(2,6-dimethylcyclohexyloxy)methyl]piperidine]	180			35			0	0		
CC1CCCC(C)C1OCC1CCCCN1C (centres unmarked) [Example 4]	350			60			65	80		
CCN1CCCCC1COc1c(C)cccc1C (centres unmarked) [Example 5, N-ethyl-2-[(2,6-xyloxy)-methyl]piperidine]	200	41	15	70	18 ± 3	9/10	90	115	3	Duration, Anal Blockade (cynomolgus monkeys; 3.0% by wt.): 258 min; Duration, Digital Blockade (cynomolgus monkeys; 3.0% by wt.): 163 min; Duration, Motor Blockade (cynomolgus monkeys; 3.0% by wt.): 178 min
CCCN1CCCCC1COc1c(C)cccc1C (centres unmarked) [Example 6, N-(n-propyl)-2-[(2,6-xyloxy)methyl]piperidine]	200	20	11	175	24 ± 2	9/9	145	155	4	Duration, Anal Blockade (cynomolgus monkeys; 3.0% by wt.): > 291 min; Duration, Digital Blockade (cynomolgus monkeys; 3.0% by wt.): 222 min; Duration, Motor Blockade (cynomolgus monkeys; 3.0% by wt.): > 198 min
CCCCN1CCCCC1COc1c(C)cccc1C (centres unmarked) [Example 7, N-(n-butyl)-2-[(2,6-xyloxy)methyl]piperidine]	225	24	16	165	27 ± 4	10/10	140	160	4	
Cc1ccc(OCC2CCCCN2C)c(C)c1 (centres unmarked) [Example 8]	400			35			55	75		
Cc1ccc(C)c(OCC2CCCCN2C)c1 (centres unmarked) [Example 9]	400			25			75	95		
CN1CCCCC1COc1ccccc1 (centres unmarked) [Example 10]	150			35			25	40		
Cc1ccccc1OCC1CCCCN1C (centres unmarked) [Example 11]	300			55			60	85		
Cc1cccc(C)c1OCC1CCCCN1CCO (centres unmarked) [Example 12]	220			40			95	95		
CCN(CC)CC(=O)Nc1c(C)cccc1C [Lidocaine, reference compound]				25			40	35	2	Duration, Anal Blockade (cynomolgus monkeys; 5.0% by wt.): 150 min; Duration, Digital Blockade (cynomolgus monkeys; 5.0% by wt.): 88 min; Duration, Motor Blockade (cynomolgus monkeys; 5.0% by wt.): 73 min; Topical anesthetic effect, Duration (rabbit cornea; concentration 4.0%): 23 ± 3 min; Topical anesthetic effect, Onset frequency (rabbit cornea; concentration 4.0%): 10/10; Duration of regularization (ventricular arrhythmias; 2 mg/kg): 4 min
OC(CNc1ccccn1)c1ccccc1 (centres unmarked) [Phenyramidole, reference compound]										inhibition at 2.5 mg/kg (lingomandibular reflex; Felis catus, iv, 2.5 mg/kg bodyweight, read-out: Maximal inhibition): 40%; inhibition at 5 mg/kg (lingomandibular reflex; Felis catus, iv, 5.0 mg/kg bodyweight, read-out: Maximal inhibition): 80%; inhibition at 10 mg/kg (lingomandibular reflex; Felis catus, iv, 10.0 mg/kg bodyweight, read-out: Maximal inhibition): 100%; Duration of inhibition (lingomandibular reflex; i.v., 2.5 mg/kg bodyweight): 5 min; Duration of inhibition (lingomandibular reflex; i.v., 5.0 mg/kg bodyweight): 20 min; Duration of inhibition (lingomandibular reflex; i.v., 10.0 mg/kg bodyweight): 60 min

— patent publication US4822778A, “Membrane stabilizing phenoxy-piperidine compounds and pharmaceutical compositions employing such compounds” (Aberg; Gunnar, priority 1988, dated 1989)
